{"source": "ChEMBL document CHEMBL1121678", "about": "“Antitumor agents. 44. Bis(helenalinyl) esters and related derivatives as novel potent antileukemic agents” (1981)", "type_in_all_cases": "functional", "key": {"[1]": {"system": "Mus musculus", "test": "Antileukemic activity of compound against the P-388 lymphocytic leukemic BDF1 male mice at 60 mg/kg/day, administered intraperitoneally; 12.7/9.66 (Treated/control)", "settings": "route intraperitoneal"}, "[2]": {"system": "Mus musculus", "test": "Antileukemic activity of compound against the P-388 lymphocytic leukemic BDF1 male mice at 8(mg/kg)/day, administered intraperitoneally; 14.0/9.66 (Treated/control)"}, "[3]": {"system": "Mus musculus", "test": "In vivo antileukemic activity against P-388 lymphocytic leukemia in BDF1 male mice at 8(mg/kg)/day intraperitoneal dose expressed as T/C"}, "[4]": {"system": "Mus musculus", "test": "In vivo antileukemic activity against P-388 lymphocytic leukemia in BDF1 male mice at 30(mg/kg)/day intraperitoneal dose expressed as T/C"}, "[5]": {"system": "Mus musculus", "test": "In vivo antileukemic activity against P-388 lymphocytic leukemia in BDF1 male mice at 60 mg/kg/day intraperitoneal dose expressed as T/C"}, "[6]": {"system": "Mus musculus", "test": "Antileukemic activity of compound against the P-388 lymphocytic leukemic BDF1 male mice at 15(mg/kg)/day, administered intraperitoneally; 18.7/9.66 (Treated/control)"}, "[7]": {"system": "Mus musculus", "test": "In vivo antileukemic activity against P-388 lymphocytic leukemia in BDF1 male mice at 15(mg/kg)/day intraperitoneal dose expressed as T/C"}, "[8]": {"system": "Mus musculus", "test": "Antileukemic activity of compound against the P-388 lymphocytic leukemic BDF1 male mice at 30(mg/kg)/day, administered intraperitoneally; 15.4/9.66 (Treated/control)"}, "[9]": {"system": "Mus musculus", "test": "Antileukemic activity of compound against the P-388 lymphocytic leukemic BDF1 male mice at 15(mg/kg)/day, administered intraperitoneally; 11.0/9.66 (Treated/control)"}, "[10]": {"system": "Mus musculus", "test": "In vivo antileukemic activity against P-388 Lymphocytic Leukemia in BDF1 male mice at 60 mg/kg/day intraperitoneal dose expressed as T/C"}, "[11]": {"system": "Mus musculus", "test": "Antileukemic activity of compound against the P-388 lymphocytic leukemic BDF1 male mice at 25(mg/kg)/day, administered intraperitoneally; 12.3/9.66 (Treated/control)"}, "[12]": {"system": "Mus musculus", "test": "Antileukemic activity of compound against the P-388 lymphocytic leukemic BDF1 male mice at 60 mg/kg/day, administered intraperitoneally; 3.0/9.66 (Treated/control)", "settings": "route intraperitoneal"}, "[13]": {"system": "Mus musculus", "test": "In vivo antileukemic activity against P-388 Lymphocytic Leukemia in BDF1 male mice at 25(mg/kg)/day intraperitoneal dose expressed as T/C"}, "[14]": {"system": "Mus musculus", "test": "Antileukemic activity of compound against the P-388 lymphocytic leukemic BDF1 male mice at 15(mg/kg)/day, administered intraperitoneally; 11.9/9.66 (Treated/control)"}, "[15]": {"system": "Mus musculus", "test": "In vivo antileukemic activity against P-388 Lymphocytic Leukemia in BDF1 male mice at 15(mg/kg)/day intraperitoneal dose expressed as T/C"}, "[16]": {"system": "Mus musculus", "test": "Antileukemic activity of compound against the P-388 lymphocytic leukemic BDF1 male mice at 3(mg/kg)/day, administered intraperitoneally; 12.9/9.66 (Treated/control)"}, "[17]": {"system": "Mus musculus", "test": "Antileukemic activity of compound against the P-388 lymphocytic leukemic BDF1 male mice at 8(mg/kg)/day, administered intraperitoneally; 15.7/9.66 (Treated/control)"}, "[18]": {"system": "Mus musculus", "test": "In vivo antileukemic activity against P-388 lymphocytic leukemia in BDF1 male mice at 3(mg/kg)/day intraperitoneal dose expressed as T/C"}, "[19]": {"system": "Mus musculus", "test": "Antileukemic activity of compound against the P-388 lymphocytic leukemic BDF1 male mice at 0.6(mg/kg)/day, administered intraperitoneally; 11/9.66 (Treated/control)"}, "[20]": {"system": "Mus musculus", "test": "In vivo antileukemic activity against P-388 lymphocytic leukemia in BDF1 male mice at 0.6(mg/kg)/day intraperitoneal dose expressed as T/C"}, "[21]": {"system": "Mus musculus", "test": "Antileukemic activity of compound against the P-388 lymphocytic leukemic BDF1 male mice at 0.6(mg/kg)/day, administered intraperitoneally; 11.0/9.66 (Treated/control)"}, "[22]": {"system": "Mus musculus", "test": "Antileukemic activity of compound against the P-388 lymphocytic leukemic BDF1 male mice at 0.6(mg/kg)/day, administered intraperitoneally; 11.6/9.66 (Treated/control)"}}}
{"compound": "C[C@@H]1C[C@H]2OC(=O)[C@@H](C)[C@H]2[C@H](OC(=O)CCC(=O)O[C@H]2[C@@H]3[C@H](C)C(=O)O[C@@H]3C[C@@H](C)[C@@H]3C=CC(=O)[C@]32C)[C@]2(C)C(=O)C=C[C@@H]12", "values": [{"measurement": "Average survival (days)", "setting": "[1]", "result": 12.7}, {"measurement": "Average survival (days)", "setting": "[2]", "result": 14}, {"measurement": "T/C", "setting": "[3]", "result": 145, "unit": "%"}, {"measurement": "T/C", "setting": "[4]", "result": 159, "unit": "%"}, {"measurement": "T/C", "setting": "[5]", "result": 131, "unit": "%"}, {"measurement": "Average survival (days)", "setting": "[6]", "result": 18.7}, {"measurement": "T/C", "setting": "[7]", "result": 194, "unit": "%"}, {"measurement": "Average survival (days)", "setting": "[8]", "result": 15.4}]}
{"compound": "C=C1C(=O)O[C@@H]2C[C@@H](C)[C@@H]3CCC(=O)[C@@]3(C)[C@@H](OC(=O)CC(=O)OCC)[C@H]12", "values": [{"measurement": "T/C", "setting": "[5]", "result": 114, "unit": "%"}, {"measurement": "Average survival (days)", "setting": "[9]", "result": 11}]}
{"compound": "C=C1C(=O)O[C@@H]2C[C@@H](C)[C@@H]3C=CC(=O)[C@@]3(C)[C@@H](O)[C@H]12", "note": "[HELENALIN]", "values": [{"measurement": "T/C", "setting": "[10]", "result": 31, "unit": "%"}, {"measurement": "Average survival (days)", "setting": "[11]", "result": 12.3}, {"measurement": "Average survival (days)", "setting": "[12]", "result": 3}, {"measurement": "T/C", "setting": "[13]", "result": 127, "unit": "%"}, {"measurement": "Average survival (days)", "setting": "[14]", "result": 11.9}, {"measurement": "T/C", "setting": "[15]", "result": 123, "unit": "%"}, {"measurement": "T/C", "setting": "[3]", "result": 162, "unit": "%"}, {"measurement": "Average survival (days)", "setting": "[16]", "result": 12.9}, {"measurement": "Average survival (days)", "setting": "[17]", "result": 15.7}, {"measurement": "T/C", "setting": "[18]", "result": 134, "unit": "%"}]}
{"compound": "CCOC(=O)CC(=O)OCC", "note": "[MALONIC ACID DIETHYL ESTER]", "values": [{"measurement": "Average survival (days)", "setting": "[19]", "result": 11}, {"measurement": "T/C", "setting": "[5]", "result": 114, "unit": "%"}]}
{"compound": "O=C(O)CC(=O)O", "note": "[MALONIC ACID]", "values": [{"measurement": "T/C", "setting": "[20]", "result": 114, "unit": "%"}, {"measurement": "Average survival (days)", "setting": "[21]", "result": 11}]}
{"compound": "CCOC(=O)CCC(=O)OCC", "note": "[SUCCINIC ACID DIETHYL ESTER]", "values": [{"measurement": "Average survival (days)", "setting": "[22]", "result": 11.6}, {"measurement": "T/C", "setting": "[5]", "result": 120, "unit": "%"}]}
{"compound": "O=C(O)CCC(=O)O", "note": "[SUCCINIC ACID]", "values": [{"measurement": "T/C", "setting": "[5]", "result": 111, "unit": "%"}]}
